Source: US20230151003A1, “COMPOUNDS AND METHODS OF USE” (Exelixis, Inc., priority 2020, published 2023)

Legend:
AXL = target: T1, AXL (Homo sapiens, UniProt P30530); experiment: AXL autophosphorylation ELISA in A-172 cells; assay type: cell-based; settings: Table 3 Cellular Activities, Gas6-stimulated, phospho-AXL ELISA
T1 construct: endogenous in cells; host or cells: A-172 glioblastoma cells (ATCC #CRL-1620)
T1 sequence (P30530 26-894): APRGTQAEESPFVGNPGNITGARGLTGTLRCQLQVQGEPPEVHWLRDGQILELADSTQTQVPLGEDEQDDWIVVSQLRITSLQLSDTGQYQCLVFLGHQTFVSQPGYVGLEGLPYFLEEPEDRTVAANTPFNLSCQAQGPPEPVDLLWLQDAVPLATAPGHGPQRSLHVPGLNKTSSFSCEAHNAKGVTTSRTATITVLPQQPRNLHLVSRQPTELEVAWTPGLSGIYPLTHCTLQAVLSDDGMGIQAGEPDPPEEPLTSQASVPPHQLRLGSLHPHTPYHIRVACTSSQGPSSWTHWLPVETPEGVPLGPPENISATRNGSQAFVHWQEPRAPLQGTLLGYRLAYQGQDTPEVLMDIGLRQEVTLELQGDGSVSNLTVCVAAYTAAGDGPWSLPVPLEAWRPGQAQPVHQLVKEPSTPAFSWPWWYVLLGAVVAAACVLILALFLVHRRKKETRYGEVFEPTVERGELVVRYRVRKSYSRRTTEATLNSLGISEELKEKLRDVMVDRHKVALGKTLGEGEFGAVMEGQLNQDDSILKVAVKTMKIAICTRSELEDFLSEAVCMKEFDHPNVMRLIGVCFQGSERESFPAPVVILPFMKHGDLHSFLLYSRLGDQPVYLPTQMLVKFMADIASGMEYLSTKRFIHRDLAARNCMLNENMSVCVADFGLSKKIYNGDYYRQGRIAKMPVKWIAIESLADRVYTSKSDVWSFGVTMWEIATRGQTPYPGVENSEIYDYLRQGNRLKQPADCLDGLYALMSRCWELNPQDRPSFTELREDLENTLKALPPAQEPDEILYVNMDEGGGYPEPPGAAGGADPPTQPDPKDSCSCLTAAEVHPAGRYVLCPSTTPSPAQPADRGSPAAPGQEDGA
Summary of the method: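 Phospho-AXL in lysates measured by ELISA after Gas6 stimulation (1 μg/mL, 15 min) of A-172 cells pre-incubated 1 h with an 8-point compound dilution series in 0.3% DMSO after 24 h serum starvation. IC50 by 4-parameter logistic fit, with DMSO-treated and reference-inhibitor wells as 100% and 0% activity.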

KDR = KDR (Homo sapiens, UniProt P35968); experiment: KDR autophosphorylation ELISA in HUVEC cells; assay type: cell-based; design: endogenous in cells; host or cells: HUVEC (Lonza #C2519A); settings: Table 3 Cellular Activities, VEGF165-stimulated, phospho-KDR ELISA
Chain of KDR (P35968 20-1356): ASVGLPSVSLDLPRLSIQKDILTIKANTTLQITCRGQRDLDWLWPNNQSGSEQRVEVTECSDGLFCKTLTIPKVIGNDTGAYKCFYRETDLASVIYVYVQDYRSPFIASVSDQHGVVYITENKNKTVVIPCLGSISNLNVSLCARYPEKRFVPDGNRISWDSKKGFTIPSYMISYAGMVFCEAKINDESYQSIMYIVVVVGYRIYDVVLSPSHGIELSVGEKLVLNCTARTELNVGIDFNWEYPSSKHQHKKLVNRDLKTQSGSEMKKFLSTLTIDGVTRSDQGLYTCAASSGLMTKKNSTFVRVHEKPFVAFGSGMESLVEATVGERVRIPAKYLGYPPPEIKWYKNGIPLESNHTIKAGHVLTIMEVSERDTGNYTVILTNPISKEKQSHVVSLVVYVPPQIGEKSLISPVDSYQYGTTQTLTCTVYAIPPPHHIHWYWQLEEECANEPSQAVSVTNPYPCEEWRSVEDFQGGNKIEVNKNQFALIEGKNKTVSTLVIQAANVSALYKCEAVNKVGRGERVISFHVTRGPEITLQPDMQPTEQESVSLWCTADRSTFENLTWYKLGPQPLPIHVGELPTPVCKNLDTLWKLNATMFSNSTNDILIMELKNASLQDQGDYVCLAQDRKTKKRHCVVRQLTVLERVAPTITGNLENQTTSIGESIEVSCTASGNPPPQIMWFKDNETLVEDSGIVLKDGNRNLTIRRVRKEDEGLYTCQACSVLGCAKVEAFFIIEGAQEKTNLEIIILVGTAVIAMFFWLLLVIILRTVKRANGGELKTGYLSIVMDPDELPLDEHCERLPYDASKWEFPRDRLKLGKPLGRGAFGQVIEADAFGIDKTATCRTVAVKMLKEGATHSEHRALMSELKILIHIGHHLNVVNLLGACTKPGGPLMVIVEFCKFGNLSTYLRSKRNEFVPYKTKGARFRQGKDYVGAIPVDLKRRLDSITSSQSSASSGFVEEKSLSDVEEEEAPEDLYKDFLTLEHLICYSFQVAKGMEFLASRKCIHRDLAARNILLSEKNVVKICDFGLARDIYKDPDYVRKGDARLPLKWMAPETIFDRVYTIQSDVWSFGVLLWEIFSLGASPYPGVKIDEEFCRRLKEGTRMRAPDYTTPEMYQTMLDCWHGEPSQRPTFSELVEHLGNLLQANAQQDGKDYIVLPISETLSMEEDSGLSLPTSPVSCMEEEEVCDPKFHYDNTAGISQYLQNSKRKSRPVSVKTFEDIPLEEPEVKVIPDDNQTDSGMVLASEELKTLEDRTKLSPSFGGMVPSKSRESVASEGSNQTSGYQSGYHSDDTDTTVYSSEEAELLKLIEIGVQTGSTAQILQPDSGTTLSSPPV
Summary of the method: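 Inhibition of VEGF165-induced KDR phosphorylation was determined in serum-starved HUVEC after 1 h compound pretreatment and 5 min stimulation with 100 ng/mL VEGF165. Lysate phospho-KDR was measured by ELISA; IC50 values came from a 4-parameter logistic fit of 8-point curves.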

Row | IC50 (AXL) [nM] | IC50 (KDR) [nM] | Structure (SMILES)
1 | ≤ 100 | ≤ 100 | COc1cc2nccc(Oc3ccc(NC(=O)c4c(C)nc(C)c(-c5cc(C(F)(F)F)nn5C)c4O)cc3F)c2nc1OC [Compound 138]
2 | ≤ 100 | ≤ 100 | COc1cc2nccc(Oc3ccc(NC(=O)c4cnc(C)c(-c5ccc(C(C)C)o5)c4O)cc3F)c2nc1OC [Compound 154, N-[4-[(6,7-Dimethoxy-1,5-naphthyridin-4-yl)oxy]-3-fluorophenyl]-4-hydroxy-6-methyl-5-(5-propan-2-ylfuran-2-yl)pyridine-3-carboxamide]
3 | ≤ 100 | ≤ 100 | CCc1ccc(-c2c(C)ncc(C(=O)Nc3ccc(Oc4ccnc5cc(OC)c(OC)nc45)c(F)c3)c2O)o1 [Compound 153, N-[4-[(6,7-Dimethoxy-1,5-naphthyridin-4-yl)oxy]-3-fluorophenyl]-5-(5-ethylfuran-2-yl)-4-hydroxy-6-methylpyridine-3-carboxamide]
4 | ≤ 100 | ≤ 100 | COCc1nc(C)c(-c2cccs2)c(O)c1C(=O)Nc1ccc(Oc2ccnc3cc(OC)c(OC)nc23)c(F)c1 [Compound 115, N-[4-[(6,7-Dimethoxy-1,5-naphthyridin-4-yl)oxy]-3-fluorophenyl]-4-hydroxy-2-(methoxymethyl)-6-methyl-5-thiophen-2-ylpyridine-3-carboxamide]
5 | ≤ 100 | ≤ 100 | COc1cc2nccc(Oc3ccc(NC(=O)c4c(C)nc(C)c(-c5ccc(C6CC6)o5)c4O)cc3F)c2nc1OC [Compound 155B, 5-(5-Cyclopropylfuran-2-yl)-N-[4-[(6,7-dimethoxy-1,5-naphthyridin-4-yl)oxy]-3-fluorophenyl]-4-hydroxy-2,6-dimethylpyridine-3-carboxamide]
6 | ≤ 100 | ≤ 100 | COc1cc2nccc(Oc3ccc(NC(=O)c4c(C)ncc(-c5ccsc5)c4O)cc3F)c2nc1OC [Compound 127, N-[4-[(6,7-Dimethoxy-1,5-naphthyridin-4-yl)oxy]-3-fluorophenyl]-4-hydroxy-2-methyl-5-thiophen-3-ylpyridine-3-carboxamide]
7 | ≤ 100 | ≤ 100 | COc1cc2nccc(Oc3ccc(NC(=O)c4c(C)nc(C)c(-c5sccc5C)c4O)cc3F)c2nc1OC [Compound 139, N-[4-[(6,7-Dimethoxy-1,5-naphthyridin-4-yl)oxy]-3-fluorophenyl]-4-hydroxy-2,6-dimethyl-5-(3-methylthiophen-2-yl)pyridine-3-carboxamide]
8 | ≤ 100 | ≤ 100 | COc1cc2nccc(Oc3ccc(NC(=O)c4cnc(C)c(-c5cncs5)c4O)cc3F)c2nc1OC [Compound 141, N-[4-[(6,7-Dimethoxy-1,5-naphthyridin-4-yl)oxy]-3-fluorophenyl]-4-hydroxy-6-methyl-5-(1,3-thiazol-5-yl)pyridine-3-carboxamide]
9 | ≤ 100 | ≤ 100 | COc1cc2nccc(Oc3ccc(NC(=O)c4c(C)ncc(-c5cc(C)cs5)c4O)cc3F)c2nc1OC [Compound 125, N-[4-[(6,7-Dimethoxy-1,5-naphthyridin-4-yl)oxy]-3-fluorophenyl]-4-hydroxy-2-methyl-5-(4-methylthiophen-2-yl)pyridine-3-carboxamide]
10 | ≤ 100 | ≤ 100 | COc1cc2nccc(Oc3ccc(NC(=O)c4cnc(C)c(-c5cc(C)cs5)c4O)cc3F)c2nc1OC [Compound 91, N-[4-[(6,7-Dimethoxy-1,5-naphthyridin-4-yl)oxy]-3-fluoro-phenyl]-4-hydroxy-6-methyl-5-(4-methyl-2-thienyl) pyridine-3-carboxamide]
11 | ≤ 100 | ≤ 100 | COc1cc2nccc(Oc3ccc(NC(=O)c4c(C)nc(C)c(-c5ccsc5)c4O)cc3F)c2nc1OC [Compound 106]
12 | ≤ 100 | ≤ 100 | COc1cc2nccc(Oc3ccc(NC(=O)c4c(C)nc(C)c(-c5ccoc5)c4O)cc3F)c2nc1OC [Compound 112, N-[4-[(6,7-Dimethoxy-1,5-naphthyridin-4-yl)oxy]-3-fluoro-phenyl]-5-(3-furyl)-4-hydroxy-2,6-dimethyl-pyridine-3-carboxamide]
13 | ≤ 100 | ≤ 100 | COc1cc2nccc(Oc3ccc(NC(=O)c4cnc(C)c(-c5ccoc5)c4O)cc3F)c2nc1OC [Compound 95, N-[4-[(6,7-Dimethoxy-1,5-naphthyridin-4-yl)oxy]-3-fluoro-phenyl]-5-(3-furyl)-4-hydroxy-6-methyl-pyridine-3-carboxamide]

The remaining lines, values behind:

Row | Structure (SMILES) | IC50 (AXL) [nM] | IC50 (KDR) [nM]
14 | COc1cc2nccc(Oc3ccc(NC(=O)c4c(C)n(C)c(C)c(-c5ccco5)c4=O)cc3)c2nc1OC [Compound 164, N-[4-[(6,7-Dimethoxy-1,5-naphthyridin-4-yl)oxy]phenyl]-5-(furan-2-yl)-1,2,6-trimethyl-4-oxopyridine-3-carboxamide] | ≤ 100 | 300 to 1000
15 | COc1nc2c(Oc3ccc(NC(=O)c4c(C)n(C)c(C)c(-c5ccco5)c4=O)cc3F)ccnc2cc1OCCC1CCC1 [Compound 337, N-[4-[[7-(2-Cyclobutylethoxy)-6-methoxy-1,5-naphthyridin-4-yl]oxy]-3-fluorophenyl]-5-(furan-2-yl)-1,2,6-trimethyl-4-oxopyridine-3-carboxamide] | ≤ 100 | ≤ 100
16 | COc1cnc2c(Oc3ccc(NC(=O)c4c(C)n(C)c(C)c(-c5cccs5)c4=O)cc3)ccnc2c1 [Compound 165, N-[4-[(7-Methoxy-1,5-naphthyridin-4-yl)oxy]phenyl]-1,2,6-trimethyl-4-oxo-5-thiophen-2-ylpyridine-3-carboxamide] | ≤ 100 | 300 to 1000
17 | COc1cnc2c(Oc3ccc(NC(=O)c4cnc(C)c(-c5ccco5)c4O)cc3F)ccnc2c1 [Compound 96, N-[3-Fluoro-4-[(7-methoxy-1,5-naphthyridin-4-yl)oxy]phenyl]-5-(2-furyl)-4-hydroxy-6-methyl-pyridine-3-carboxamide] | ≤ 100 | ≤ 100
18 | COc1cnc2c(Oc3ccc(NC(=O)c4cn(CCF)c(C)c(-c5cccs5)c4=O)cc3F)ccnc2c1 [Compound 331, 1-(2-Fluoroethyl)-N-[3-fluoro-4-[(7-methoxy-1,5-naphthyridin-4-yl)oxy]phenyl]-6-methyl-4-oxo-5-thiophen-2-ylpyridine-3-carboxamide] | ≤ 100 | 300 to 1000
19 | COc1ccc2nccc(Oc3ccc(NC(=O)c4cnc(C)c(-c5cccs5)c4O)cc3F)c2n1 [Compound 128, N-[3-Fluoro-4-[(6-methoxy-1,5-naphthyridin-4-yl)oxy]phenyl]-4-hydroxy-6-methyl-5-thiophen-2-ylpyridine-3-carboxamide] | ≤ 100 | ≤ 100
20 | COc1cc2nccc(Oc3ccc(NC(=O)c4cnc(C)c(-c5nccs5)c4O)cc3F)c2nc1OC [Compound 143, N-[4-[(6,7-Dimethoxy-1,5-naphthyridin-4-yl)oxy]-3-fluorophenyl]-4-hydroxy-6-methyl-5-(1,3-thiazol-2-yl)pyridine-3-carboxamide] | ≤ 100 | ≤ 100
21 | COc1cc2nccc(Oc3ccc(NC(=O)c4cn(CCF)c(C)c(-c5ccco5)c4=O)cc3F)c2nc1OC [Compound 333, N-[4-[(6,7-Dimethoxy-1,5-naphthyridin-4-yl)oxy]-3-fluorophenyl]-1-(2-fluoroethyl)-5-(furan-2-yl)-6-methyl-4-oxopyridine-3-carboxamide] | ≤ 100 | 100 to 300
22 | COc1cnc2c(Oc3ccc(NC(=O)c4cnc(C)c(-c5ccoc5)c4O)cc3F)ccnc2c1 [Compound 99, N-[3-Fluoro-4-[(7-methoxy-1,5-naphthyridin-4-yl)oxy]phenyl]-5-(3-furyl)-4-hydroxy-6-methyl-pyridine-3-carboxamide] | ≤ 100 | ≤ 100
23 | COc1cc2nccc(Oc3ccc(NC(=O)c4c(C)n(C)c(C)c(-c5cccs5)c4=O)cc3)c2nc1OC [Compound 167, N-[4-[(6,7-Dimethoxy-1,5-naphthyridin-4-yl)oxy]phenyl]-1,2,6-trimethyl-4-oxo-5-thiophen-2-ylpyridine-3-carboxamide] | ≤ 100 | 300 to 1000
24 | COc1ccc2nccc(Oc3ccc(NC(=O)c4cnc(C)c(-c5ccco5)c4O)cc3F)c2n1 [Compound 118, N-[3-Fluoro-4-[(6-methoxy-1,5-naphthyridin-4-yl)oxy]phenyl]-5-(furan-2-yl)-4-hydroxy-6-methylpyridine-3-carboxamide] | ≤ 100 | ≤ 100
